The values below are quoted from earlier work in article PMC9127185, “A Pyridazinone Compound for Effectively Treating Non-alcoholic Steatohepatitis by Targeting THRβ” (Frontiers in Chemistry, 2022).

Details of the data set: method as in Harrison et al., 2019. The following applies: ref Harrison et al., 2019; cited from earlier work.

With `CC(C)c1cc(Oc2c(Cl)cc(-n3nc(C#N)c(=O)[nH]c3=O)cc2Cl)n[nH]c1=O` [resmetirom, 2-[3,5-Dichloro-4-(5-Isopropyl-6-Oxo-1,6-Dihydropyridazin-3-Yloxy)phenyl]-3,5-Dioxo-2,3,4,5-Tetrahydro[1,2,4]triazine-6-Carbonitrile], the Distribution result is given as “liver-specific distribution”; the “Effect on low density lipoprotein and triglyceride” value is “reduced both low density lipoprotein and triglyceride effectively”.
